The values that follow come from paper PMC3131604, “The Inhibitory Effect of Non-Steroidal Anti-Inflammatory Drugs (NSAIDs) on the Monophenolase and Diphenolase Activities of Mushroom Tyrosinase” (International Journal of Molecular Sciences, 2011).

Like-named read-outs stand apart in the source and are kept apart here.

The target of assay [1] is T1, mushroom tyrosinase (Agaricus bisporus, UniProt C7FF04). Nature of the assay: monophenolase activity assay of mushroom tyrosinase (L-tyrosine as substrate). The assay is classed as biochemical. Conditions: for effect on lag time of monophenolase activity: 0.25-1.0 mM inhibitor; for Inhibition type, monophenolase activity: Lineweaver-Burk plots; for activity at 250 µM: at 0.25 mM; for activity at 250 µM / activity at 500 µM / activity at 750 µM / activity at 1000 µM: read-out: monophenolase activity (steady-state rate) in presence of inhibitor; for activity at 500 µM: at 0.5 mM; for activity at 750 µM: at 0.75 mM; for activity at 1000 µM: at 1.0 mM; for KIS (inhibitor binding with the enzyme-substrate complex), monophenolase: secondary plot of Lineweaver-Burk slopes. The method, then:
The monophenolase activity assay was performed with modification as reported by Chen et al.. In this assay, L-tyrosine was used as substrate in the monophenolase activity assay. First, 300 μL of 2.5 mM L-tyrosine, 25 μL of DMSO with or without a sample chemical, and 300 μL of 0.1 M phosphate buffer (pH 6.8) were mixed. The mixture was preincubated at 37 °C for 10 min before 125 μL of 1000 units/mL mushroom tyrosinase in aqueous solution added, and the reaction was performed at 37 °C. Enzyme activity was monitored at 475 nm by a UV spectrophotometer (Shimadzu, UV-1700). The lag time was determined by extrapolation of the linear portion of the dopachrome accumulation curve to the abscissa axis.
(§1) The inhibition type of NSAIDs on the monophenolase and diphenolase activity was determined by the Lineweaver-Burk plots and the inhibition constants were determined from secondary plots of the apparent Km/Vmax versus the concentration of the inhibitor.

Assay [2] concerns the target T1, mushroom tyrosinase. Nature of the assay: diphenolase activity assay of mushroom tyrosinase (L-DOPA as substrate). The class given is biochemical. Conditions: for KIS, diphenolase: Lineweaver-Burk / secondary plots; for Inhibition type, diphenolase activity: Lineweaver-Burk plots; for activity at 50 µM: at 0.05 mM; for activity at 50 µM / activity at 100 µM / activity at 200 µM / activity at 500 µM / activity at 1000 µM: read-out: diphenolase activity in presence of inhibitor; for activity at 100 µM: at 0.1 mM; for activity at 500 µM: at 0.5 mM; for activity at 1000 µM: at 1.0 mM. The method, then:
The diphenolase activity assay was performed as previously described. First, 300 μL of 2.5 mM 3,4-dihydroxyphenylalanine (L-DOPA) solution, 50 μL of DMSO with or without a sample chemical, and 1.1 mL of 0.1 M phosphate buffer (pH 6.8) were mixed. The mixture was preincubated at 25 °C for 10 min before 50 μL of 1000 units/mL mushroom tyrosinase in aqueous solution was added, and the reaction was monitored at 475 nm. A control reaction was conducted in DMSO alone. The percentage of activity of tyrosinase was calculated as follows: 100 − [(A − B)/A × 100], where A represents the difference in the absorbance of the control sample between an incubation time of 0.5 and 1.0 min, and B represents the difference in the absorbance of the test sample over the same incubation period.
as §1

Another assay deals with B16F1 melanoma cells. Conditions: cited from earlier work.

By inhibition is commonly meant the drop in the measured response relative to a control, in per cent.

T1 sequence (C7FF04 1-392): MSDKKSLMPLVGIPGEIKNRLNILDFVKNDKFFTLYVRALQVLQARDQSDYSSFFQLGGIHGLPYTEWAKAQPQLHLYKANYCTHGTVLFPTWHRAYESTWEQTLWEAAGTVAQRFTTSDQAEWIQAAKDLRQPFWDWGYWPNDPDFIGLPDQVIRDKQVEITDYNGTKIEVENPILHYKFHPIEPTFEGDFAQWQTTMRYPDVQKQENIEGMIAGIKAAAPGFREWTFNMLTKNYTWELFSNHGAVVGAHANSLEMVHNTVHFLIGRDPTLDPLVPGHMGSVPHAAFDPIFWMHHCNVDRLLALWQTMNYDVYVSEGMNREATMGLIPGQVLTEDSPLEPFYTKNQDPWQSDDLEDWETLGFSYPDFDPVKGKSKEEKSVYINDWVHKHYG
T1 sequence (G1K3P4 1-150 partner): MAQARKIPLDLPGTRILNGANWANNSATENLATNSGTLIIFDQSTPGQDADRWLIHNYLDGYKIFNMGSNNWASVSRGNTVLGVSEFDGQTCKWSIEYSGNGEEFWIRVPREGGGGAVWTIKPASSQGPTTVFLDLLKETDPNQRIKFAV

For the compound `O=C(O)c1cc(-c2ccc(F)cc2F)ccc1O` [Diflunisal, diflunisal], on mushroom tyrosinase [1], the “effect on lag time of monophenolase activity” value was “extended”; the “Inhibition type, monophenolase activity” value was “Non-competitive”; the activity at 250 µM is about 45%; the activity at 500 µM is about 34%. Besides, on mushroom tyrosinase [1], the activity at 750 µM is about 27%; the activity at 1000 µM is about 20%; the “KIS (inhibitor binding with the enzyme-substrate complex), monophenolase” value stood at 0.11 mM. Further, at mushroom tyrosinase [2], the “KIS, diphenolase” value was determined as 0.19 mM; the “Inhibition type, diphenolase activity” value is “Non-competitive”; the activity at 50 µM was about 77%; the activity at 100 µM was about 63%. At mushroom tyrosinase [2], the activity at 500 µM was about 32% and the activity at 1000 µM is about 20%. Also, the activity at 200 µM at mushroom tyrosinase [2] (at 0.2 mM) is about 49%.
As to `CC(C)Cc1ccc(C(C)C(=O)O)cc1` (stereo not shown) [Ibuprofen, ibuprofen], the “inhibition of diphenolase activity (in words)” value (from here on “inhibition … (in words)”) on mushroom tyrosinase [2] (L-DOPA substrate) was “did not inhibit”. Moreover, the inhibition at 1000 µM at mushroom tyrosinase [2] (at 1 mM) came to 8%.
Take `Cc1cccc(Nc2ccccc2C(=O)O)c1C` [Mefenamic acid, mefenamic acid]: the inhibition at 1000 µM on mushroom tyrosinase [1] (at 1 mM) worked out at 9%. The “inhibition … (in words)” value on mushroom tyrosinase [2] (at 0.2 mM) was “slightly inhibited”. Further, the effect on melanogenesis result with B16F1 melanoma cells is “inhibit melanogenesis”.
With `COc1ccc2c(c1)c(CC(=O)O)c(C)n2C(=O)c1ccc(Cl)cc1` [Indomethacin, indomethacin], at mushroom tyrosinase [1], the “effect on lag time of monophenolase activity” value is reported as “did not change”; the “Inhibition type, monophenolase activity” value was “Non-competitive”; the activity at 250 µM is about 84%; the activity at 500 µM is about 72%. At mushroom tyrosinase [1], the activity at 750 µM was about 66%; the activity at 1000 µM was about 60%; the “KIS (inhibitor binding with the enzyme-substrate complex), monophenolase” value worked out at 0.75 mM. At mushroom tyrosinase [1] (ratio of IC50 values), the “IC50 of monophenolase activity relative to diphenolase activity” value is reported as “about three times larger”. Moreover, on mushroom tyrosinase [2], the “KIS, diphenolase” value was 2.42 mM; the “Inhibition type, diphenolase activity” value was “Non-competitive”; the activity at 50 µM is about 89%; the activity at 100 µM is about 82%. For the same compound, at mushroom tyrosinase [2], the activity at 500 µM was about 50% and the activity at 1000 µM is about 32%. Moreover, the activity at 200 µM at mushroom tyrosinase [2] (at 0.2 mM) was about 70%.
Regarding `O=C(O)Cc1ccccc1Nc1c(Cl)cccc1Cl` [Diclofenac, diclofenac], the inhibition at 4000 µM against mushroom tyrosinase [1] (at 4 mM) came out at 25%. In the assay with B16F1 melanoma cells, the effect on melanogenesis entry is “inhibit melanogenesis”.
In the case of `CC(=O)Oc1ccccc1C(=O)O` [Acetylsalicylic acid, acetylsalicylic acid], the “inhibition … (in words)” value against mushroom tyrosinase [2] (L-DOPA substrate) was “did not inhibit”. The inhibition at 4000 µM against mushroom tyrosinase [2] (at 4 mM) was -6%. In addition, in the assay on B16F1 melanoma cells (B16F1 melanoma cells ref 23), the effect on melanogenesis entry is given as “inhibits melanogenesis” and the “effect on tyrosinase protein expression” value is recorded as “down-regulates”.
